# According to paper PMC12948427 (The Journal of Clinical Investigation, 2025):
# “And” between values parts separate entries of the source, which are not always exact repeats. Equal values may be shown once. Read-outs that look alike come from different tables or passages of the source. Ends that are not written are not given here.
# Tests used:
# in vitro [1] = settings: Vero E6 cells, cell viability, Figure S7F
# in vitro [2] = settings: human, Calu-3 cells, cell viability, Figure S7G
# [3] = molecular target: hHGS 1-390-6 × HIS protein (Homo sapiens, UniProt O14964); assay: SPR binding of immobilized M peptides to HGS; settings: without RTB; read-out: KD, binding affinity of peptide with HGS (SPR)
# in vitro [4] = settings: mouse, 17Cl-1 cells, cell viability, Figure S7E
# Sequence of hHGS 1-390-6 × HIS protein (O14964 1-390): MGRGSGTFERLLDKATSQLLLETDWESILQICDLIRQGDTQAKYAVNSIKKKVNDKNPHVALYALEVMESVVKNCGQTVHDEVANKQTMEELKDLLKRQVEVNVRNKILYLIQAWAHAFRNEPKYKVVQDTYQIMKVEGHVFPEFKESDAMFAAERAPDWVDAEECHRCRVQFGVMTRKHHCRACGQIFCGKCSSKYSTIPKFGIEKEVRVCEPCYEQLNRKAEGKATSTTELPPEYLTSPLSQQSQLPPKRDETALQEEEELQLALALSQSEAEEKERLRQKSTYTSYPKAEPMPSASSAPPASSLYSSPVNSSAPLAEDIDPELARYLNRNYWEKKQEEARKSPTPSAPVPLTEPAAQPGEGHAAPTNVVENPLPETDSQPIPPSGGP
sequence,measurement,setting,value
GRKKRRQRRRPPQESELVIGAVILR [M146],viability at 24 h,in vitro [1]; peptide concentration 2000,98.5%
same,viability at 24 h,in vitro [1]; peptide concentration 10000,97.7%
same,viability at 24 h,in vitro [1]; peptide concentration 20000,94.2%
same,viability at 24 h,in vitro [1]; peptide concentration 40000,93.1%
same,viability at 24 h,in vitro [1]; peptide concentration 80000,91.9%
same,viability at 24 h,in vitro [1]; peptide concentration 120000,88.8%
same,viability at 24 h,in vitro [1]; peptide concentration 160000,80.8%
same,viability at 24 h,in vitro [1]; peptide concentration 200000,70.8%
same,viability at 24 h,in vitro [1]; peptide concentration 400000,20%
same,viability at 24 h,in vitro [1]; peptide concentration 800000,12%
same,viability at 24 h,in vitro [1]; peptide concentration 1200000,11.4%
same,viability at 24 h,in vitro [1]; peptide concentration 1600000,14.5%
same,viability at 24 h,in vitro [2]; peptide concentration 2000,83.8%
same,viability at 24 h,in vitro [2]; peptide concentration 10000,95.2%
same,viability at 24 h,in vitro [2]; peptide concentration 20000,94.8%
same,viability at 24 h,in vitro [2]; peptide concentration 40000,93.7%
same,viability at 24 h,in vitro [2]; peptide concentration 80000,92.6%
same,viability at 24 h,in vitro [2]; peptide concentration 160000,85.6%
same,viability at 24 h,in vitro [2]; peptide concentration 200000,83%
same,viability at 24 h,in vitro [2]; peptide concentration 400000,24.4%
same,viability at 24 h,in vitro [2]; peptide concentration 800000,13%
same,viability at 24 h,in vitro [2]; peptide concentration 1200000,11%
same,viability at 24 h,in vitro [2]; peptide concentration 1600000,11.7%
same,Kd,[3],5.73 nM
same,viability at 24 h,in vitro [4]; peptide concentration 1000,99.7%
same,viability at 24 h,in vitro [4]; peptide concentration 4000,103%
same,viability at 24 h,in vitro [4]; peptide concentration 8000,95.8%
same,viability at 24 h,in vitro [4]; peptide concentration 10000,107%
same,viability at 24 h,in vitro [4]; peptide concentration 20000,92.7%
same,viability at 24 h,in vitro [4]; peptide concentration 40000,91%
same,viability at 24 h,in vitro [4]; peptide concentration 80000,71.4%
same,viability at 24 h,in vitro [4]; peptide concentration 100000,84.5%
same,viability at 24 h,in vitro [4]; peptide concentration 200000,84%
same,cytotoxicity (CCK-8),"Vero E6 cells; Vero E6, up to 10^4 nM",no significant cytotoxicity
same,"cell viability, Figure S7F",Vero E6 cells; peptide concentration 2000,100.769 and 98.8462
same,"cell viability, Figure S7F",Vero E6 cells; peptide concentration 10000,100.769 and 99.2308
same,"cell viability, Figure S7F",Vero E6 cells; peptide concentration 20000,100 and 96.5385
same,"cell viability, Figure S7F",Vero E6 cells; peptide concentration 40000,96.9231 and 96.1538
same,"cell viability, Figure S7F",Vero E6 cells; peptide concentration 80000,86.9231
same,"cell viability, Figure S7F",Vero E6 cells; peptide concentration 120000,92.3077
same,"cell viability, Figure S7F",Vero E6 cells; peptide concentration 160000,75.7692 and 76.9231
same,"cell viability, Figure S7F",Vero E6 cells; peptide concentration 200000,78.4615 and 78.8462
same,"cell viability, Figure S7F",Vero E6 cells; peptide concentration 400000,21.7308 and 21.1538
same,"cell viability, Figure S7F",Vero E6 cells; peptide concentration 800000,13.7308 and 14.2308
same,"cell viability, Figure S7F",Vero E6 cells; peptide concentration 1200000,13.4615 and 14.1154
same,"cell viability, Figure S7F",Vero E6 cells; peptide concentration 1600000,13.0385 and 11.8077
same,cytotoxicity (CCK-8),"17Cl-1 cells; 17Cl-1, up to 10^4 nM",no significant cytotoxicity
same,"cell viability, Figure S7E",17Cl-1 cells; peptide concentration 1000,99.2599 and 92.2943
same,"cell viability, Figure S7E",17Cl-1 cells; peptide concentration 4000,104.049 and 106.226
same,"cell viability, Figure S7E",17Cl-1 cells; peptide concentration 8000,108.838
same,"cell viability, Figure S7E",17Cl-1 cells; peptide concentration 10000,97.5185 and 100.566
same,"cell viability, Figure S7E",17Cl-1 cells; peptide concentration 20000,112.32 and 104.049
same,"cell viability, Figure S7E",17Cl-1 cells; peptide concentration 40000,96.2125 and 97.0832
same,"cell viability, Figure S7E",17Cl-1 cells; peptide concentration 60000,82.2812 and 103.613 and 98.3892
same,"cell viability, Figure S7E",17Cl-1 cells; peptide concentration 80000,90.5529
same,"cell viability, Figure S7E",17Cl-1 cells; peptide concentration 100000,97.0832 and 87.5054
same,"cell viability, Figure S7E",17Cl-1 cells; peptide concentration 200000,89.6822 and 71.8328
same,cytotoxicity (CCK-8),"Calu-3 cells; Calu-3, up to 10^4 nM",no significant cytotoxicity
same,"cell viability, Figure S7G",Calu-3 cells; peptide concentration 2000,95.941 and 95.203
same,"cell viability, Figure S7G",Calu-3 cells; peptide concentration 10000,97.048 and 96.679
same,"cell viability, Figure S7G",Calu-3 cells; peptide concentration 20000,96.679
same,"cell viability, Figure S7G",Calu-3 cells; peptide concentration 40000,96.31 and 87.4539
same,"cell viability, Figure S7G",Calu-3 cells; peptide concentration 80000,94.0959 and 97.048
same,"cell viability, Figure S7G",Calu-3 cells; peptide concentration 120000,77.1218 and 97.786 and 96.31
same,"cell viability, Figure S7G",Calu-3 cells; peptide concentration 160000,66.0517 and 74.9077
same,"cell viability, Figure S7G",Calu-3 cells; peptide concentration 200000,81.9188 and 68.2657
same,"cell viability, Figure S7G",Calu-3 cells; peptide concentration 400000,25.2399 and 16.7897
same,"cell viability, Figure S7G",Calu-3 cells; peptide concentration 800000,14.4649
same,"cell viability, Figure S7G",Calu-3 cells; peptide concentration 1200000,11.5867 and 10.5535
same,"cell viability, Figure S7G",Calu-3 cells; peptide concentration 1600000,13.7638 and 14.6125
